A short description of data set [1]: Analysis of luciferase mRNA lipid particle composition (Production Example 1). The data set is classed as physicochemical. The conditions noted are these: for Particle size: lipid particle cationic lipid:DPPC:cholesterol:GM-020=60:10.6:28:1.4 with luciferase mRNA, Zetasizer Nano ZS; for Encapsulation ratio / mRNA Concentration: lipid particle composition with luciferase mRNA, RiboGreen. An excerpt:
(§1) The particle size of the lipid particle (in the composition) can be measured by using a known means. For example, a Zetasizer Nano ZS (Malvern Instruments Limited), a particle size analyzer based on an NIBS (non-invasive backscatter) technique, can be used to calculate the particle size as a z-average particle size through cumulant analysis of the autocorrelation function. The particle size (average particle size) of the lipid particle (in the composition) is preferably 10 to 200 nm.
(§2) The concentration and encapsulation ratio of a nucleic acid (e.g., an siRNA, an mRNA) as an active ingredient in the composition of the present invention can be measured by using a known means. For example, after the nucleic acid is fluorescence-labeled with Quant-iT™ RiboGreen® (Invitrogen), the concentration and the encapsulation ratio can be determined by measuring the fluorescence intensity. The concentration of the nucleic acid in the composition can be calculated by using a standard curve prepared from aqueous solutions of the nucleic acid with known concentrations, and the encapsulation ratio can be calculated on the basis of difference in fluorescence intensity depending on the presence or absence of addition of Triton-X100 (a surfactant to disintegrate the lipid particle). The concentration of the nucleic acid in the composition refers to the total concentration of molecules of the nucleic acid encapsulated in the lipid particle and molecules of the nucleic acid not encapsulated in the lipid particle, and the encapsulation ratio refers to the fraction of molecules of the nucleic acid encapsulated in the lipid particle to all the molecules of the nucleic acid in the composition.
(§3) A lipid mixture (cationic lipid produced in Examples:DPPC:cholesterol:GM-020=60:10.6:28:1.4, in mole ratio) was dissolved in 90% EtOH/10% RNase-free water to afford a 8.5 mg/mL lipid solution. Luciferase mRNA (TriLink Bio Technologies) was dissolved in 10 mM 2-morpholinoethanesulfonate (MES) buffer at pH 4.0 to afford a 0.22 mg/mL nucleic acid solution. The lipid solution and nucleic acid solution obtained were mixed by using the apparatus NanoAssemblr (Precision Nanosystems) at room temperature with a flow rate ratio of 3 mL/min:6 mL/min to afford a dispersion containing a lipid particle encapsulating the nucleic acid. By using a Slyde-A-Lyzer (molecular weight cutoff: 20k, Thermo Fisher Scientific), the dispersion obtained was dialyzed with water at room temperature for 1 hour and with PBS at 4° C. for 48 hours. Subsequently, filtration was performed with a 0.2 µm syringe filter (IWAKI CO., LTD.) to prepare a composition for nucleic acid introduction, and thereafter the composition was stored at 4° C. The particle size of the lipid particle was measured by using a Zetasizer Nano ZS (Malvern Instruments Limited). The mRNA concentration and encapsulation ratio of the lipid particle were measured by using a Quant-iT™ RiboGreen® (Invitrogen).

In the next data set the test system is HCT116 cells. Briefly: Test of mRNA transfection into cultured cells (luciferase expression). The data set is classed as cell-based, human. As to conditions: HCT116, 10 ng luciferase mRNA per well, 24 hours after addition. As to the method:
as §3
The human colorectal cancer-derived cell line HCT116 cells were cultured in a 96-well plate at a cell density of 6000 cells/well, and 24 hours thereafter 10 μL of the composition containing 10 ng of luciferase mRNA for nucleic acid introduction (a solution obtained by diluting the product of Production Example 1 to an mRNA concentration of 10 ng/10 μL) was added to the medium. The level of luciferase expressed in HCT116 24 hours after the addition of mRNA was measured by using a Picagene LT2.0 kit (TOYOBO CO., LTD.).

A short description of data set [2]: Analysis of Col1a1/FVII siRNA lipid particle composition (Production Example 2). The data set is classed as physicochemical. As to conditions: for Particle size: lipid particle cationic lipid:DPPC:cholesterol:GM-020=60:10.6:28:1.4 with Col1a1 and FVII siRNA, Zetasizer Nano ZS; for Encapsulation ratio / siRNA Concentration: lipid particle composition with Col1a1 and FVII siRNA, RiboGreen.
Text: as §1, §2
A lipid mixture (cationic lipid produced in Examples:DPPC:cholesterol:GM-020=60:10.6:28:1.4, in mole ratio) was dissolved in 90% EtOH/10% RNase-free water to afford an approximately 7 mg/mL lipid solution. Equal amounts of an siRNA for Col1a1 and an siRNA for Factor VII (FVII) were mixed together, and the mixture was dissolved in 25 mM acetate buffer at pH 4.0 to afford a 0.2 mg/mL nucleic acid solution. Sequence information on the siRNAs are shown in a table below. The lipid solution and nucleic acid solution obtained were mixed by using the apparatus NanoAssemblr (Precision Nanosystems) at room temperature with a flow rate ratio of 3 mL/min:9 mL/min to afford a dispersion containing a lipid particle including the nucleic acids. By using a Slyde-A-Lyzer (molecular weight cutoff: 20k, Thermo Fisher Scientific), the dispersion obtained was dialyzed with water at room temperature for 1 hour and with PBS at 4° C. for 48 hours. Subsequently, filtration was performed with a 0.2 µm syringe filter (IWAKI CO., LTD.) to prepare a composition for nucleic acid introduction, and thereafter the composition was stored at 4° C. The particle size of the lipid particle was measured by using a Zetasizer Nano ZS (Malvern Instruments Limited). The mRNA concentration and encapsulation ratio of the lipid particle were measured by using a Quant-iT™ RiboGreen® (Invitrogen).

Consider 11 compounds from patent US11993570B2, “Cationic lipids” (TAKEDA PHARMACEUTICAL COMPANY LIMITED, priority 2017, dated 2024).

Take `CCCC/C=C\CCCCCCCC(=O)OCC(COC(=O)CCCCCCC/C=C\CCCC)(COC(=O)CCCCCCC/C=C\CCCC)COC(=O)CCCN(C)C` [Example 1, 3-((4-(Dimethylamino)butanoyl)oxy)-2,2-bis(((9Z)-tetradec-9-enoyloxy)methyl)propyl (9Z)-tetradec-9-enoate]: in data set [1], the Particle size turned out to be 71 nm, the Encapsulation ratio was found to be 96% and the “mRNA Concentration” value is 136 µg/mL. The “Mean value of luminescence for 3 wells” value in the data set on HCT116 cells (Table 3 (PBS control 560)) amounted to 227720 cps.

In the case of `CCCC/C=C\CCCCCCCC(=O)OCC(COC(=O)CCCCCCC/C=C\CCCC)(COC(=O)CCCCCCC/C=C\CCCC)COC(=O)CCCCN(C)C` [Example 2, 3-((5-(dimethylamino)pentanoyl)oxy)-2,2-bis(((9Z)-tetradec-9-enoyloxy)methyl)propyl (9Z)-tetradec-9-enoate], in data set [1], the Particle size is 90 nm, the Encapsulation ratio came out at 96% and the “mRNA Concentration” value stood at 73 µg/mL. The “Mean value of luminescence for 3 wells” value in the data set on HCT116 cells (Table 3 (PBS control 560)) turned out to be 570027 cps. In addition, in data set [2], the Particle size is on record as 104 nm, the Encapsulation ratio was 98% and the “siRNA Concentration” value was determined as 251 µg/mL.

`CCCC/C=C\CCCCCCCC(=O)OCC(COC(=O)CCCCCCC/C=C\CCCC)(COC(=O)CCCCCCC/C=C\CCCC)COC(=O)CCCCCN(C)C` [Example 3, 3-((6-(dimethylamino)hexanoyl)oxy)-2,2-bis(((9Z)-tetradec-9-enoyloxy)methyl)propyl (9Z)-tetradec-9-enoate]: in data set [1], the Particle size amounted to 93 nm, the Encapsulation ratio stood at 96% and the “mRNA Concentration” value was 87 µg/mL. For the same compound, the “Mean value of luminescence for 3 wells” value with HCT116 cells (Table 3 (PBS control 560)) is 412187 cps. In data set [2], the Particle size was determined as 117 nm, the Encapsulation ratio came to 95% and the “siRNA Concentration” value is 196 µg/mL.

`CCCC/C=C\CCCCCCCC(=O)OCC(COC(=O)CCCCCCC/C=C\CCCC)(COC(=O)CCCCCCC/C=C\CCCCCC)COC(=O)CCCN(C)C` [Example 4, 3-((4-(Dimethylamino)butanoyl)oxy)-2,2-bis(((9Z)-tetradec-9-enoyloxy)methyl)propyl (9Z)-hexadec-9-enoate]: in data set [1], the Particle size is listed as 76 nm, the Encapsulation ratio worked out at 97% and the “mRNA Concentration” value was 113 µg/mL. In addition, in the data set on HCT116 cells (Table 3 (PBS control 560)), the “Mean value of luminescence for 3 wells” value was found to be 407547 cps. In data set [2], the Particle size worked out at 90 nm, the Encapsulation ratio was 89% and the “siRNA Concentration” value amounted to 355 µg/mL.

As for `CCCC/C=C\CCCCCCCC(=O)OCC(COC(=O)CCCCCCC/C=C\CCCC)(COC(=O)CCCCCCC/C=C\CCCCCC)COC(=O)CCCCN(C)C` [Example 5, 3-((5-(dimethylamino)pentanoyl)oxy)-2,2-bis(((9Z)-tetradec-9-enoyloxy)methyl)propyl (9Z)-hexadec-9-enoate], in data set [1], the Particle size is reported as 91 nm, the Encapsulation ratio worked out at 98% and the “mRNA Concentration” value was 96 µg/mL. For the same compound, the “Mean value of luminescence for 3 wells” value in the data set with HCT116 cells (Table 3 (PBS control 560)) is recorded as 545507 cps. Also, in data set [2], the Particle size is on record as 103 nm, the Encapsulation ratio was found to be 94% and the “siRNA Concentration” value turned out to be 367 µg/mL.

`CCCC/C=C\CCCCCCCC(=O)OCC(COC(=O)CCCCCCC/C=C\CCCC)(COC(=O)CCCCCCC/C=C\CCCCCCCC)COC(=O)CCCCN(C)C` [Example 6, 3-((5-(dimethylamino)pentanoyl)oxy)-2,2-bis(((9Z)-tetradec-9-enoyloxy)methyl)propyl (9Z)-octadec-9-enoate]: in data set [2], the Particle size turned out to be 87 nm, the Encapsulation ratio came to 98% and the “siRNA Concentration” value was found to be 333 µg/mL.

As to `CCCC/C=C\CCCCCCCC(=O)OCC(COC(=O)CCCCCCC/C=C\C/C=C\CCCCC)(COC(=O)CCCCCCC/C=C\CCCC)COC(=O)CCCCN(C)C` [Example 7, 3-((5-(dimethylamino)pentanoyl)oxy)-2,2-bis(((9Z)-tetradec-9-enoyloxy)methyl)propyl (9Z,12Z)-octadec-9,12-dienoate], in data set [2], the Particle size worked out at 102 nm, the Encapsulation ratio is recorded as 96% and the “siRNA Concentration” value was determined as 320 µg/mL.

On to `CCCC/C=C\CCCCCCCC(=O)OCC(COC(=O)CCCCCCC)(COC(=O)CCCCCCC/C=C\CCCC)COC(=O)CCN(C)C` [Example 8, 2-(((N,N-dimethyl-β-alanyl)oxy]methyl}-2-[(octanoyloxy)methyl)propane-1,3-diyl (9Z,9′Z)bis-tetradec-9-enoate], for which, in data set [1], the Particle size is 67 nm, the Encapsulation ratio turned out to be 94% and the “mRNA Concentration” value is 84 µg/mL. Moreover, the “Mean value of luminescence for 3 wells” value in the data set on HCT116 cells (Table 3 (PBS control 560)) is listed as 3853 cps.

Regarding `CCCC/C=C\CCCCCCCC(=O)OCC(COC(=O)CCCCCCC)(COC(=O)CCCCCCC/C=C\CCCC)COC(=O)CCCN(C)C` [Example 9, 2-(((4-(dimethylamino)butanoyl)oxy)methyl)-2-((octanoyloxy)methyl)propane-1,3-diyl (9Z,9′Z)bis-tetradec-9-enoate], in data set [1], the Particle size was determined as 108 nm, the Encapsulation ratio is on record as 62% and the “mRNA Concentration” value was 129 µg/mL. Moreover, the “Mean value of luminescence for 3 wells” value in the data set on HCT116 cells (Table 4 (PBS control 627)) amounted to 549893 cps.

In the case of `CCCC/C=C\CCCCCCCC(=O)OCC(COC(=O)CCCCCCC/C=C\CCCC)(COC(=O)CCCCCCCCC)COC(=O)CCCN(C)C` [Example 10, 2-((decanoyloxy)methyl)-2-(((4-(dimethylamino)butanoyl)oxy)methyl)propane-1,3-diyl (9Z,9′Z)bis-tetradec-9-enoate], in data set [1], the Particle size is listed as 92 nm, the Encapsulation ratio is on record as 84% and the “mRNA Concentration” value stood at 86 µg/mL. Also, the “Mean value of luminescence for 3 wells” value in the data set on HCT116 cells (Table 3 (PBS control 560)) was found to be 1203467 cps. Further, in data set [2], the Particle size was found to be 88 nm, the Encapsulation ratio is 90% and the “siRNA Concentration” value turned out to be 307 µg/mL.

On to `CCCC/C=C\CCCCCCCC(=O)OCC(COC(=O)CCCCCCC/C=C\CCCC)(COC(=O)CCCCCCCCCCC)COC(=O)CCCN(C)C` [Example 11, 2-(((4-(Dimethylamino)butanoyl)oxy)methyl)-2-((dodecanoyloxy)methyl)propane-1,3-diyl (9Z,9′Z)bis-tetradec-9-enoate], for which, in data set [1], the Particle size came out at 83 nm, the Encapsulation ratio stood at 92% and the “mRNA Concentration” value came to 85 µg/mL. In addition, in the data set on HCT116 cells (Table 3 (PBS control 560)), the “Mean value of luminescence for 3 wells” value was 953520 cps. For the same compound, in data set [2], the Particle size was 85 nm, the Encapsulation ratio stood at 91% and the “siRNA Concentration” value is 402 µg/mL.
